The values below are quoted from earlier work in patent US8440213B2, “Pesticides formulations” (priority 2003, dated 2013).

One may read the Solubility as the concentration that dissolves in the medium under given conditions.

The conditions of this data set: in water, at 20° C.

≈ marks a conversion by molar mass, not a printed value. Bounds are passed on as bounds.

With `CCOP(=S)(OCC)Oc1nc(Cl)c(Cl)cc1Cl` [Chlorpyriphos], the Solubility is 1.4 µg/mL (≈ 3.99 µM). On to `CCOc1ccc(C(C)(C)COCc2cccc(Oc3ccccc3)c2)cc1` [Etofenprox, 2-(4-ethoxyphenyl)-2-methylpropyl 3-phenoxybenzyl ether], for which the Solubility is below 0.001 µg/mL.

In the case of `COc1nn(CSP(=S)(OC)OC)c(=O)s1` [Methidathion], the Solubility is 200 µg/mL (≈ 662 µM). On to `CCCN(CCC)c1c([N+](=O)[O-])cc(C(F)(F)F)cc1[N+](=O)[O-]` [Trifluralin, α,α,α,-trifluoro-2,6-dinitro-N,N-dipropyl-p-toluidine], for which the Solubility is 0.4 µg/mL (≈ 1.19 µM).
